18 molecules from patent publication US10144736B2 (Gilead Sciences, Inc., priority 2006, dated 2018) can be followed below.

One series concerns the target HCV replicon. The experiment in a line: Anti-HCV replicon assay (EC50, luciferase readout). In kind it is cell-based, hepatitis C virus. The conditions noted are these: human hepatoma Huh-7 cell line harbouring a HCV replicon, 3 days incubation, luciferase signal. How it is done: (§1) The anti HCV activity of specifically substituted pteridine derivatives was tested in a human hepatoma Huh-7 cell line harbouring a HCV replicon. The assay comprised the following steps:
(§2) Step 1: compound preparation and serial dilution involved the following alternatives, depending upon the water solubility of pteridine derivative being tested:
(§3) • 1. with respect to water soluble pteridine derivatives, 500 μL of solution in cell media (DMEM, 10% FBS, P/S, L-Glutamine) was prepared with a concentration that is twice the concentration of the starting final serial dilution concentration. 150 μL of the solution was added to the pre-specified wells in column 1 of a 96-well cell culture plate (PerkinElmer, white plate, cat. #6005181, for EC50 assay; black plate, cat. #6005182 for CC50 assay). The rest of the plate, i.e. columns 2-12, was filled with 100 μL of cell media. The plate was then placed on a Precision 2000 Workstation in order to start serial dilution. Pteridine compounds were diluted three times each step from column 1 to column 10. Column 11 was used as a blank control (no pteridine compound added). • 2. With respect to poorly water soluble pteridine derivatives, DMSO was used as a solvent, and serial dilution was performed in 50% DMSO in water, in a 384-well plate. A solution containing the relevant compound at 100-fold the concentration of the starting final serial dilution concentration was prepared in 50% DMSO in water and added to the pre-specified wells in column 1 of a polypropylene 384-well plate. This plate was then placed on a Precision 2000 Workstation in order to start serial dilution. After serial dilution, 2 μL of the solution was transferred from the 384-well plate to a 96-well cell culture plate containing 100 μL of cell media on a Biomek FX Workstation. The DMSO concentration in the final assay condition was 0.5% after cells have been added to the plate and the total volume in each well was brought to 200 μL. Step 2: to each well of the serial dilution plate prepared in step 1, 100 μL of cell media containing 6000 suspended Huh-7 HCV replicon cells was added with a Multidrop workstation. Plates were incubated for 3 days at 37° C. with 5% CO2. Step 3: detection: • 1) with respect to the EC50 assay, the media in a 96-well cell culture plate was aspirated with a Biotek EL405 plate-washer. A volume of 200 μL of a solution containing a 1:1 mixture of a cell-lysis buffer (commercially available from Promega, Luciferase Cell Culture Lysis 5X Reagent, cat. #E1531) and a luciferase substrate solution (commercially available from Promega, Luciferase Assay, cat. #E4550) was added to each well of the plate with Multidrop. The plate was incubated for 30 minutes at room temperature before the luminescence signal was measured with a TopCount plate-reader. • 2) with respect to the CC50 assay, 100 μL of a pre-mixed CellTiter-Glo (commercially available from Promega, cat. #G7572) solution was added directly to the cell culture in each well of the plate and the luminescence signal was measured with a TopCount plate-reader after 10 minutes of incubation at room temperature.
(§4) Results are expressed by the following data: • the 50% effective concentration (EC50), i.e. the concentration that protects 50% of the cell monolayer from virus-induced cythopathic effect. • the 50% cytostatic concentration (CC50), i.e. the concentration that results in 50% inhibition of cell growth.
In general terms: Replicon systems follow genome replication, usually without infectious particles.

For another series, the system named is Huh-7 HCV replicon cells. The experiment in a line: CC50 assay (CellTiter-Glo) in Huh-7 HCV replicon cells. In kind it is cell-based, human. As to conditions: 3 days incubation, 50% cytostatic concentration. Here is the method:
as §1, §2, §3, §4
For orientation: Cellular ATP, detected with luciferase, serves as a proxy for viable cell number.

Experiment in series [1]: as above
The series is classed as cell-based, human. The conditions noted are these: human, 3 days incubation, 50% cytostatic concentration. How it is done:
as §1, §2, §3, §4

Where [2] appears, read: Hepatitis C virus, 72 h, read-out: EC50.

Where two headings read alike, the source gives them in different places.

In the case of `Nc1nc(N2CCOCC2)c2nc(-c3ccc(NC(=O)C4CC4)cc3)cnc2n1` [Example 142, Cyclopropane carboxylic acid[4-(2-amino-4-morpholin-4-yl-pteridin-6-yl)-phenyl]-amide], at HCV replicon (read-out: EC50), the EC50 (in general, the concentration at which the effect is half-maximal) was in the range of 0.3 to 1 µM. Further, the CC50 (usually the concentration at which the toxic effect on the cells reaches its halfway point) in the series with Huh-7 HCV replicon cells was < 10 µM.
`Nc1nc(N2CCOCC2)c2nc(-c3cccc(F)c3F)cnc2n1` [Example 113, 6-(2,3-difluorophenyl)-4-morpholino-pteridin-2-ylamine] registered an EC50 in the series on HCV replicon of 1 to 10 µM. Moreover, the CC50 in the series on Huh-7 HCV replicon cells was > 20 µM.
As for `Nc1nc(N2CCOCC2)c2nc(-c3ccc(OC(F)(F)F)cc3)cnc2n1` [Example 86], the EC50 on HCV replicon (read-out: EC50) is 0.3 to 1 µM. The CC50 in the series on Huh-7 HCV replicon cells is 10 to 20 µM.
On to `COc1ccccc1-c1cnc2nc(N)nc(N3CCOCC3)c2n1` [Example 80, 6-(2-methoxyphenyl)-4-morpholinopteridin-2-ylamine], for which the EC50 with HCV replicon (setting [2]) was 0.3 to 1 µM. For the same molecule, in series [1], the CC50 at 3 days is > 20 µM.
On to `Nc1nc(N2CCOCC2)c2nc(-c3cccc(F)c3F)cnc2n1` [Example 90, 6-(2,3-difluorophenyl)-4-morpholinopteridin-2-ylamine], for which the EC50 with HCV replicon fell in the range of 0.3 to 1 µM. In series [1], the CC50 at 3 days is > 20 µM.
As for `CCCCOc1nc(N)nc2ncc(-c3ccc(F)cc3)nc12` [Example 152, 4-Butoxy-6-(4-fluorophenyl)-pteridin-2-ylamine], the EC50 with HCV replicon (setting [2]) lay within 1 to 10 µM. The CC50 at 3 days in series [1] was > 20 µM.
In turn, `Nc1nc(N2CCOCC2)c2nc(-c3ccoc3)cnc2n1` [Example 111, 6-(furan-3-yl)4-morpholinopteridin-2-ylamine] showed an EC50 in the series with HCV replicon (Hepatitis C virus, Huh-7, 72 h) of 1 to 10 µM. Further, the CC50 at 3 days in series [1] is > 20 µM.
On to `Nc1nc(N2CCOCC2)c2nc(-c3ccc(C(F)(F)F)cc3Cl)cnc2n1` [Example 121, 6-(2-chloro-4-(trifluoromethyl)phenyl)-4-morpholinopteridin-2-ylamine], for which, in the series with HCV replicon (setting [2]), the EC50 lay in the range of 1 to 10 µM. In series [1], this molecule had a 50% cytotoxic concentration (CC50) at 3 days of 10 to 20 µM.
In the series on HCV replicon (Hepatitis C virus, Huh-7, 72 h), `Nc1nc(N2CCOCC2)c2nc(-c3ccc(F)cc3Cl)cnc2n1` [Example 92, 6-(2-chloro-4-fluorophenyl)-4-morpholinopteridin-2-ylamine] gave an EC50 of 0.3 to 1 µM. In series [1], this molecule came in with a CC50 at 3 days of 10 to 20 µM.
On to `Nc1nc(N2CCOCC2)c2nc(-c3ccccc3C(F)(F)F)cnc2n1` [Example 79, 4-morpholino-6-(2-(trifluoromethyl)phenyl)pteridin-2-ylamine], for which the EC50 with HCV replicon (setting [2]) was in the range of 0.3 to 1 µM. For the same molecule, the CC50 at 3 days in series [1] was < 10 µM.
The like results for `COc1nc(N)nc2ncc(-c3ccc(F)cc3)nc12` [Example 149, 6-(4-Fluorophenyl)-4-methoxy-pteridin-2-ylamine] were, in that order, 0.3 to 1 µM and > 20 µM.
On the same counts, the results for `CNC(=O)c1ccc(-c2cnc3nc(N)nc(N4CCOCC4)c3n2)cc1` [Example 114, 4-(2-amino-4-morpholinopteridin-6-yl)-N-methylbenzamide] are 1 to 10 µM and > 20 µM.
With `CCOc1nc(N)nc2ncc(-c3ccc(N)cc3)nc12` [Example 69, 6-(4-aminophenyl)-4-ethoxypteridin-2-ylamine], in the series with HCV replicon (Hepatitis C virus, Huh-7, 72 h), the EC50 lay within 1 to 10 µM. Moreover, the CC50 at 3 days in series [1] is > 20 µM.
Regarding `N#Cc1cccc(-c2cnc3nc(N)nc(N4CCOCC4)c3n2)c1` [Example 85, 3-(2-amino-4-morpholinopteridin-6-yl)benzonitrile], in the series with HCV replicon (setting [2]), the EC50 fell in the range of 1 to 10 µM. Moreover, the CC50 at 3 days in series [1] was > 20 µM.
With `CC(C)(C)C(=O)Nc1ccc(-c2cnc3nc(N)nc(N4CCOCC4)c3n2)cc1` [Example 138, N-(4-(2-amino-4-morpholinopteridin-6-yl)phenyl)pivalamide], the EC50 with HCV replicon (setting [2]) was 1 to 10 µM. In series [1], the CC50 at 3 days lay in the range of 10 to 20 µM.
Turning to `C[C@H](N)C(=O)Nc1ccc(-c2cnc3nc(N)nc(N4CCOCC4)c3n2)cc1` [Example 145, (S)-2-amino-N-(4-(2-amino-4-morpholinopteridin-6-yl)phenyl)-propanamide], in the series with HCV replicon (setting [2]), the EC50 fell in the range of 0.3 to 1 µM. The CC50 at 3 days in series [1] was > 20 µM.
With `CC(C)C(=O)Nc1ccc(-c2cnc3nc(N)nc(N4CCOCC4)c3n2)cc1` [Example 137, N-(4-(2-amino-4-morpholinopteridin-6-yl)phenyl)isobutyramide], in the series on HCV replicon (setting [2]), the EC50 was < 0.3 µM. This molecule had a CC50 at 3 days in series [1] of 10 to 20 µM.
On the same counts, the results for `Nc1nc(N2CCOCC2)c2nc(-c3cc4ccccc4o3)cnc2n1` [Example 133, 6-(benzofuran-2-yl)-4-morpholinopteridin-2-ylamine] are 0.3 to 1 µM and > 20 µM.
